In patent publication US10173971B2, “Picolinamides with fungicidal activity” (DOW AGROSCIENCES LLC, priority 2014, dated 2019):
Where two headings read alike, the source gives them in different places.

How the values were obtained:
Puccinia triticina = assay: Fungicidal activity: wheat brown rust (PUCCRT), wheat seedlings, booth sprayer to run-off or track spray; format: in vivo; settings: High-Volume Cereal Activity at 100 ppm
Procedure: All fungicides were evaluated using the aforementioned method for their activity vs. all target diseases. Wheat leaf blotch and brown rust activity were also evaluated using track spray applications, in which case the fungicides were formulated as EC formulations, containing 0.1% Trycol 5941 in the spray solutions. Wheat plants (variety Yuma) were grown from seed in a greenhouse in 50% mineral soil/50% soil-less Metro mix until the first leaf was fully emerged, with 7-10 seedlings per pot. These plants were inoculated with an aqueous spore suspension of Puccinia triticina either prior to or after fungicide treatments. […] The plants were then transferred to a greenhouse set at 24° C. for disease to develop. Fungicide formulation, application and disease assessment followed the procedures as described in the Example A.

Zymoseptoria tritici = assay: Fungicidal activity: leaf blotch of wheat (SEPTTR), wheat seedlings, booth sprayer to run-off or track spray; format: in vivo; settings: High-Volume Cereal Activity at 100 ppm
Procedure: All fungicides were evaluated using the aforementioned method for their activity vs. all target diseases. Wheat leaf blotch and brown rust activity were also evaluated using track spray applications, in which case the fungicides were formulated as EC formulations, containing 0.1% Trycol 5941 in the spray solutions. Wheat plants (variety Yuma) were grown from seed in a greenhouse in 50% mineral soil/50% soil-less Metro mix until the first leaf was fully emerged, with 7-10 seedlings per pot. These plants were inoculated with an aqueous spore suspension of Zymoseptoria tritici either prior to or after fungicide treatments. After inoculation the plants were kept in 100% relative humidity (one day in a dark dew chamber followed by two to three days in a lighted dew chamber at 20° C.) to permit spores to germinate and infect the leaf. The plants were then transferred to a greenhouse set at 20° C. for disease to develop. When disease symptoms were fully expressed on the 1st leaves of untreated plants, infection levels were assessed on a scale of 0 to 100 percent disease severity. Percent disease control was calculated using the ratio of disease severity on treated plants relative to untreated plants.

[1] = 24 h, 1 Day Protectant, read-out: PUCCRT 1DP
[2] = 3DC (Day Curative), read-out: PUCCRT 3DC
[3] = 24 h, 1 Day Protectant, read-out: SEPTTR 1DP
[4] = 3DC (Day Curative), read-out: SEPTTR 3DC

Compound | pest or weed control at 100 ppm (Puccinia triticina; [1]) [%] | pest or weed control at 100 ppm (Puccinia triticina; [2]) [%] | pest or weed control at 100 ppm (Zymoseptoria tritici; [3]) [%] | pest or weed control at 100 ppm (Zymoseptoria tritici; [4]) [%]
CCCO[C@@H](CC)[C@@H](Cc1ccccc1)[C@H](C)OC(=O)[C@H](C)NC(=O)c1nccc(OC)c1O [compound 91] | 80 to 100 | 80 to 100 | 0 to 80 | 80 to 100
CCCO[C@H](CC)[C@@H](Cc1ccccc1)[C@H](C)OC(=O)[C@H](C)NC(=O)c1nccc(OC)c1O [compound 92] | 80 to 100 | 80 to 100 | 80 to 100 | 80 to 100
CCCOC[C@@H](Cc1ccccc1)[C@H](C)OC(=O)[C@H](C)NC(=O)c1nccc(OC)c1O [compound 93] | 80 to 100 | 80 to 100 | 0 to 80 | 80 to 100
CCCO[C@@H](CC)[C@@H](Cc1ccccc1)[C@H](C)OC(=O)[C@@H](C)NC(=O)c1nccc(OC)c1O [compound 94] | 80 to 100 | 80 to 100 | 0 to 80 | 0 to 80
CCCO[C@@H](CC)[C@@H](Cc1ccccc1)[C@H](C)OC(=O)[C@H](CC)NC(=O)c1nccc(OC)c1O [compound 95] | 80 to 100 | 80 to 100 | 0 to 80 | 0 to 80
CCCO[C@H](CC)[C@@H](Cc1ccccc1)[C@H](C)OC(=O)[C@@H](C)NC(=O)c1nccc(OC)c1O [compound 96] | 80 to 100 | 80 to 100 | 80 to 100 | 0 to 80
CCCOC[C@@H](Cc1ccccc1)[C@H](C)OC(=O)[C@@H](C)NC(=O)c1nccc(OC)c1O [compound 97] | 0 to 80 | 0 to 80 | 0 to 80 | 0 to 80
CCCOC[C@@H](Cc1ccccc1)[C@H](C)OC(=O)[C@H](CC)NC(=O)c1nccc(OC)c1O [compound 98] | 80 to 100 | 80 to 100 | 80 to 100 | 80 to 100
CCCOC[C@@H](Cc1ccccc1)[C@H](C)OC(=O)C(C)(C)NC(=O)c1nccc(OC)c1O [compound 99] | 0 to 80 | 0 to 80 |  | 0 to 80
CCCO[C@@H](CC)[C@@H](Cc1ccccc1)[C@H](C)OC(=O)C(C)(C)NC(=O)c1nccc(OC)c1O [compound 100] | 0 to 80 |  |  | 0 to 80
CC[C@H](CCCc1ccccc1)[C@@H](CC(C)C)[C@H](C)OC(=O)C(C)NC(=O)c1nccc(OC)c1O (stereo partly drawn) [compound 101] | 80 to 100 | 0 to 80 | 80 to 100 | 
CC[C@H](CC1CC1)[C@@H](Cc1ccccc1)[C@H](C)OC(=O)[C@H](C)NC(=O)c1nccc(OC)c1O [compound 102] | 80 to 100 | 80 to 100 | 0 to 80 | 80 to 100
CC[C@H](Cc1ccccc1)[C@@H](Cc1ccc(F)cc1)[C@H](C)OC(=O)[C@H](C)NC(=O)c1nccc(OC)c1O [compound 103] | 80 to 100 | 0 to 80 | 80 to 100 | 0 to 80
CCCOC[C@@H](Cc1ccccc1)[C@H](C)OC(=O)CNC(=O)c1nccc(OC)c1O [compound 104] |  | 0 to 80 |  | 0 to 80
CCOC[C@H](Oc1ccc(C)cc1)[C@@H](Cc1ccc(F)cc1)[C@H](C)OC(=O)[C@H](C)NC(=O)c1nccc(OC)c1O [compound 105] | 80 to 100 | 0 to 80 | 0 to 80 | 0 to 80
CCCOC[C@@H](Cc1ccccc1)[C@H](C)OC(=O)C(COC)NC(=O)c1nccc(OC)c1O (stereo partly drawn) [compound 106] | 0 to 80 | 0 to 80 |  | 0 to 80
C=C[C@H](Cc1ccc(C(F)(F)F)cc1)[C@@H](Cc1ccc(F)cc1)[C@H](C)OC(=O)[C@H](COC)NC(=O)c1nccc(OC)c1O [compound 107] | 0 to 80 |  |  | 
C=C[C@H](Cc1ccc(C(F)(F)F)cc1)[C@@H](Cc1ccc(F)cc1)[C@H](C)OC(=O)[C@H](C)NC(=O)c1nccc(OC)c1O [compound 108] | 80 to 100 |  |  | 0 to 80
